Laboratory results: US20260262643A1, “HERBICIDAL BENZOXAZINES” (FMC CORPORATION, priority 2022, published 2026)

Experiments:
ryegrass, Italian [1] = assay: Test A preemergence; assay type: in vivo, Lolium multiflorum
Summary of the method: (§1)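 Loam/sand soil; pre-em directed soil spray at planting, post-em spray at 1–2 leaf (2–10 cm). Compound in non-phytotoxic solvent + surfactant. Greenhouse 10 d; visual injury vs untreated, 0 = no effect, 100 = complete control.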

kochia [2] = assay: Test A preemergence; assay type: in vivo, Bassia scoparia
Summary of the method: as §1

wheat [3] = assay: Test A postemergence; assay type: in vivo, Triticum aestivum; settings: postemergence, 10 days
Summary of the method: as §1

corn [4] = assay: Test A preemergence; assay type: in vivo, Zea mays
Summary of the method: as §1

blackgrass [5] = assay: Test A preemergence; assay type: in vivo, Alopecurus myosuroides
Summary of the method: as §1

galium = assay: Test A postemergence; assay type: in vivo, Galium aparine; settings: postemergence, 10 days
Summary of the method: as §1

ryegrass, Italian [6] = assay: Test A postemergence; assay type: in vivo, Lolium multiflorum; settings: postemergence, 10 days
Summary of the method: as §1

ragweed [7] = assay: Test A preemergence; assay type: in vivo, Ambrosia artemisiifolia
Summary of the method: as §1

goosegrass [8] = assay: Test A preemergence; assay type: in vivo, Eleusine indica
Summary of the method: as §1

kochia [9] = assay: Test A postemergence; assay type: in vivo, Bassia scoparia; settings: postemergence, 10 days
Summary of the method: as §1

ducksalad = assay: Test B flooded paddy test; assay type: in vivo, Heteranthera limosa; settings: 250 g ai/ha, Flood, 13 days, 0 to 100 scale (0 no effect, 100 complete control)
Summary of the method: (§2)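 Plants at the 2-leaf stage were flooded to 3 cm above the soil, and test compounds were applied directly into the paddy water, with that depth held throughout. After 13 days in a greenhouse, injury was rated visually against untreated controls on a 0–100 scale (100 = complete control).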

soybean [10] = assay: Test A preemergence; assay type: in vivo, Glycine max
Summary of the method: as §1

foxtail, giant [11] = assay: Test A preemergence; assay type: in vivo, Setaria faberi
Summary of the method: as §1

goosegrass [12] = assay: Test A postemergence; assay type: in vivo, Eleusine indica; settings: postemergence, 10 days
Summary of the method: as §1

corn [13] = assay: Test A postemergence; assay type: in vivo, Zea mays; settings: postemergence, 10 days
Summary of the method: as §1

wheat [14] = assay: Test A preemergence; assay type: in vivo, Triticum aestivum
Summary of the method: as §1

soybean [15] = assay: Test A postemergence; assay type: in vivo, Glycine max; settings: postemergence, 10 days
Summary of the method: as §1

ragweed [16] = assay: Test A postemergence; assay type: in vivo, Ambrosia artemisiifolia; settings: postemergence, 10 days
Summary of the method: as §1

blackgrass [17] = assay: Test A postemergence; assay type: in vivo, Alopecurus myosuroides; settings: postemergence, 10 days
Summary of the method: as §1

sedge, umbrella = assay: Test B flooded paddy test; assay type: in vivo, Cyperus difformis; settings: 250 g ai/ha, Flood, 13 days, 0 to 100 scale (0 no effect, 100 complete control)
Summary of the method: as §2

barnyardgrass = assay: Test B flooded paddy test; assay type: in vivo, Echinochloa crus-galli; settings: 250 g ai/ha, Flood, 13 days, 0 to 100 scale (0 no effect, 100 complete control)
Summary of the method: as §2

foxtail, giant [18] = assay: Test A postemergence; assay type: in vivo, Setaria faberi; settings: postemergence, 10 days
Summary of the method: as §1

pigweed, palmer [19] = assay: Test A preemergence; assay type: in vivo, Amaranthus palmeri
Summary of the method: as §1

rice = assay: Test B flooded paddy test; assay type: in vivo, Oryza sativa; settings: 250 g ai/ha, Flood, 13 days, 0 to 100 scale (0 no effect, 100 complete control)
Summary of the method: as §2

pigweed, palmer [20] = assay: Test A postemergence; assay type: in vivo, Amaranthus palmeri; settings: postemergence, 10 days
Summary of the method: as §1

oat, wild [21] = assay: Test A preemergence; assay type: in vivo, Avena fatua
Summary of the method: as §1

oat, wild [22] = assay: Test A postemergence; assay type: in vivo, Avena fatua; settings: postemergence, 10 days
Summary of the method: as §1

horseweed = assay: Test A postemergence; assay type: in vivo, Erigeron canadensis; settings: postemergence, 10 days
Summary of the method: as §1

[23] = 125 g ai/ha, visual injury after 10 days, 0 to 100 scale, 0 is no effect, 100 is complete control
[24] = 500 g ai/ha, 0 to 100 scale (0 no effect, 100 complete control), 10 days
[25] = 125 g ai/ha, 0 to 100 scale, 0 no effect, 100 complete control
[26] = 500 g ai/ha, visual injury, 0 to 100 scale (0 no effect, 100 complete control)

SMILES: CC(C)Oc1ccc(-n2cnc(C(C)C)n2)cc1C(=O)N1C[C@H](C)Oc2c(Cl)cccc21 [Compound 108]
- Plant response rating, Ryegrass, Italian (ryegrass, Italian [1]; [23]): 80
- Plant response rating, Ryegrass, Italian (ryegrass, Italian [1]; [24]): 100
- Plant response rating, Kochia (kochia [2]; [23]): 0
- Plant response rating, Kochia (kochia [2]; [24]): 80
- Wheat plant response rating (wheat [3]; [25]): 10
- Plant response rating, Wheat (wheat [3]; [26]): 30
- Plant response rating, Corn (corn [4]; [23]): 0
- Plant response rating, Corn (corn [4]; [24]): 30
- Plant response rating, Blackgrass (blackgrass [5]; [23]): 0
- Plant response rating, Blackgrass (blackgrass [5]; [24]): 40
- Galium plant response rating (galium; [25]): 80
- Plant response rating, Galium (galium; [26]): 90
- Ryegrass, Italian plant response rating (ryegrass, Italian [6]; [25]): 20
- Plant response rating, Ryegrass, Italian (ryegrass, Italian [6]; [26]): 40
- Plant response rating, Ragweed (ragweed [7]; [23]): 30
- Plant response rating, Ragweed (ragweed [7]; [24]): 90
- Plant response rating, Goosegrass (goosegrass [8]; [23]): 100
- Plant response rating, Goosegrass (goosegrass [8]; [24]): 100
- Kochia plant response rating (kochia [9]; [25]): 70
- Plant response rating, Kochia (kochia [9]; [26]): 90
- Plant response rating, Ducksalad (ducksalad): 20
- Plant response rating, Soybean (soybean [10]; [23]): 50
- Plant response rating, Soybean (soybean [10]; [24]): 100
- Plant response rating, Foxtail, Giant (foxtail, giant [11]; [23]): 90
- Plant response rating, Foxtail, Giant (foxtail, giant [11]; [24]): 100
- Goosegrass plant response rating (goosegrass [12]; [25]): 80
- Plant response rating, Goosegrass (goosegrass [12]; [26]): 90
- Corn plant response rating (corn [13]; [25]): 40
- Plant response rating, Corn (corn [13]; [26]): 60
- Plant response rating, Wheat (wheat [14]; [23]): 30
- Plant response rating, Wheat (wheat [14]; [24]): 40
- Soybean plant response rating (soybean [15]; [25]): 100
- Plant response rating, Soybean (soybean [15]; [26]): 100
- Ragweed plant response rating (ragweed [16]; [25]): 60
- Plant response rating, Ragweed (ragweed [16]; [26]): 60
- Blackgrass plant response rating (blackgrass [17]; [25]): 30
- Plant response rating, Blackgrass (blackgrass [17]; [26]): 30
- Plant response rating, Sedge, Umbrella (sedge, umbrella): 80
- Plant response rating, Barnyardgrass (barnyardgrass): 55
- Foxtail, Giant plant response rating (foxtail, giant [18]; [25]): 70
- Plant response rating, Foxtail, Giant (foxtail, giant [18]; [26]): 90
- Plant response rating, Pigweed, Palmer (pigweed, palmer [19]; [23]): 100
- Plant response rating, Pigweed, Palmer (pigweed, palmer [19]; [24]): 100
- Plant response rating, Rice (rice): 10
- Pigweed, Palmer plant response rating (pigweed, palmer [20]; [25]): 70
- Plant response rating, Pigweed, Palmer (pigweed, palmer [20]; [26]): 70
- Plant response rating, Oat, Wild (oat, wild [21]; [23]): 30
- Plant response rating, Oat, Wild (oat, wild [21]; [24]): 30
- Oat, Wild plant response rating (oat, wild [22]; [25]): 20
- Plant response rating, Oat, Wild (oat, wild [22]; [26]): 70
- Horseweed plant response rating (horseweed; [25]): 10
- Plant response rating, Horseweed (horseweed; [26]): 20
